Key:
[1] = molecular target: T1, casein kinase 2 α′ subunit (CK2α′) (Homo sapiens, UniProt P19784, R173A); assay: ITC; assay type: binding
T1 construct: gene CSNK2A2
T1 sequence (P19784 1-350 R173A): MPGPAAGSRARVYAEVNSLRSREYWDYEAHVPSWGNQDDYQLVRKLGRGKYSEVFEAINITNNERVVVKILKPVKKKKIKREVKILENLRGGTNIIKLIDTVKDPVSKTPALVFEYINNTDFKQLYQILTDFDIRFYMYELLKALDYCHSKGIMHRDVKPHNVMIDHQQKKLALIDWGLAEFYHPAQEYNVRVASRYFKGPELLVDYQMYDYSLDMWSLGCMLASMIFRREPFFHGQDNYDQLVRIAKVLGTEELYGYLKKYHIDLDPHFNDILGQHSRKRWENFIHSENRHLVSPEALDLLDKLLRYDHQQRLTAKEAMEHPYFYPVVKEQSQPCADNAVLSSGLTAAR

[2] = molecular target: T2, casein kinase 2 α′ subunit (CK2α′) (Homo sapiens, UniProt P19784); assay: ITC ([…]); also SPR KD […], NanoDSF, CETSA, DARTS, pulldown, LC–MS/MS of covalently modified peptide; assay type: binding
T2 construct: gene CSNK2A2; human recombinant CK2α′ protein
T2 sequence (P19784 whole entry): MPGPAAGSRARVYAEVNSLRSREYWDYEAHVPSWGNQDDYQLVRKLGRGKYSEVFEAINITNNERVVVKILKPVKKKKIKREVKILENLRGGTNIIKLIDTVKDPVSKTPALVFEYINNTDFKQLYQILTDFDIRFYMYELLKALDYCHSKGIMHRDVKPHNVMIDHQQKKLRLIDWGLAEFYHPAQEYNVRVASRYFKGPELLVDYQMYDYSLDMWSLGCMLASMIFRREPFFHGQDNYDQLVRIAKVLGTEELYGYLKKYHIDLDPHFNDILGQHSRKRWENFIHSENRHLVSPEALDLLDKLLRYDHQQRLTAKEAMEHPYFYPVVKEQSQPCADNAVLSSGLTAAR

SMILES: C[C@@H]1O[C@@H](O[C@@H]2[C@@H](O)[C@H](OCCc3ccc(O)c(O)c3)O[C@H](CO[C@@H]3O[C@H](CO)[C@@H](O)[C@H](O)[C@H]3O)[C@H]2OC(=O)/C=C/c2ccc(O)c(O)c2)[C@H](O)[C@H](O)[C@H]1O [ECH, echinacoside]
- Kd [1]: 413 nM
- Kd [2]: 1060 nM
